Ten compounds from PubChem BioAssay (NCI) can be followed below.

The structures appear in SMILES notation. Values joined by “and” are separate entries in the source; they are usually repeats but may differ in a detail not shown here. Equal values may be shown once.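 Briefly, cells in 96-well plates were exposed to five compound concentrations for 48 h, and endpoints were estimated by linear interpolation. Abbreviation: GI50, concentration required for 50% inhibition of growth. TGI: total growth inhibition.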 A value given as a limit tells only on which side of the number the result lay.

What all share (assay): NCI anticancer screen, dose series, 48 h
Assay [1] concerns A498 renal.
The test system of assay [2] is K-562 leukemia.
For assay [3], the system named is OVCAR-3 ovarian.
The test system of assay [4] is SN12C renal.
Assay [5] concerns U251 CNS.
Assay [6] concerns SK-MEL-28 melanoma.
Assay [7] has as its system NCI-H23 lung.
Assay [8] relates to NCI/ADR-RES ovarian.
Assay [9] concerns 786-0 renal.
The subject of assay [10] is SK-MEL-5 melanoma.
The subject of assay [11] is NCI-H226 lung.
In assay [12] the test system is BT-549 breast.
Assay [13] relates to TK-10 renal.
The test system of assay [14] is CAKI-1 renal.
Assay [15] relates to HOP-92 NSCLC.

Take `COc1cc2c[n+](C)c3c4cc(OC)c(OC)cc4ccc3c2cc1OC`: the TGI in [1], in [2], in [3], in [4], in assay [5] and in assay [6] was more than 100 µM each time. In addition, the TGI in assay [7] is > 100 µM and 77 µM; in assay [8], more than 100 µM; in assay [9] it was more than 100 µM; in assay [10], more than 100 µM; in assay [11], more than 100 µM; in assay [12] it was more than 100 µM. The TGI in [13] and in assay [14] was more than 100 µM each time. The GI50 in assay [4] was 30.4 µM and 3.98 µM; in assay [5] it was 14.3 µM and 7.05 µM; in assay [7], 40.8 µM and 19.5 µM; in [8] it was more than 100 µM.
Consider `O=c1c2ccccc2[nH]c2c(Cl)cc(Cl)c(N3CCCCC3)c12`, for which the TGI in [1] is 81 µM; in assay [2], more than 10 µM; in assay [3], more than 100 µM; in assay [4], 55.8 µM; in [5] it was 62.4 µM; in [6], more than 100 µM. The TGI is 76.5 µM in [7]; 83.4 µM in assay [8]; more than 10 µM in assay [9]; more than 100 µM in [10]; 62 µM in [11]; more than 100 µM in assay [12]. Moreover, the TGI is more than 100 µM in [13] and 97.1 µM in assay [14].
In the case of `CCOC(=O)c1cc(C2CCN(Cc3ccccc3)C2=S)c(C(=O)C=[N+]=[N-])[nH]1` (stereo unspecified), the TGI in [1] is more than 100 µM; in [2] it was more than 100 µM; in [3], 45.1 µM; in assay [5] it was more than 100 µM; in assay [6], 51.5 µM; in assay [7], 53.4 µM. Further, the TGI in [15] was more than 100 µM; in [8], 79.6 µM; in assay [9], 85.4 µM; in [10], 34.5 µM; in assay [12] it was 67.6 µM; in assay [13], more than 100 µM. The TGI in assay [14] was more than 100 µM.
As to `O=C1/C(=C/c2ccc(Cl)cc2)CSC/C1=C\c1ccc(Cl)cc1`, the TGI in [2] is 10.1 µM; in assay [3], 8.11 µM; in [4], 9.52 µM; in [5] it was 3.04 µM; in assay [6], 5.51 µM; in assay [7], 11.8 µM. For the same compound, the TGI in [15] is 43.2 µM; in assay [8] it was more than 100 µM; in assay [9], 9.73 µM; in [10] it was 10.6 µM; in assay [11], 5.59 µM; in assay [12] it was 4.99 µM. Moreover, the TGI in assay [13] is 13 µM; in [14], 11.8 µM.
As to `COc1cc(C2c3c(ccc4ccccc34)C(=O)C3CCC(=O)N32)cc(OC)c1O` (stereo unspecified), the TGI in assay [1], in [2], in [3], in assay [4], in [5] and in assay [6] was more than 25 µM each time. Besides, the TGI in assay [7], in [15], in assay [8], in assay [9], in assay [11] and in [12] was more than 25 µM each time.
For the compound `NC(Cc1ccc(B(O)O)cc1)C(=O)NC(CO)CO` (stereo unspecified), the TGI in assay [2], in assay [3], in assay [4], in assay [5], in [6] and in assay [7] was more than 100 µM throughout. The TGI in assay [8], in [9], in [10], in assay [11], in assay [12] and in assay [13] was more than 100 µM in each case. The compound also returned a TGI in assay [14] of more than 100 µM.
Turning to `Clc1c2ccccc2nc2c1[nH]c1ccccc12`, the TGI in assay [1], in [3], in assay [4], in assay [5], in assay [6] and in assay [7] was more than 100 µM each time. In addition, the TGI in [15] is more than 100 µM; in assay [8], 89.7 µM; in [9], more than 100 µM; in assay [10], 21.3 µM; in [12], more than 100 µM; in assay [13], more than 100 µM. The compound further registered a TGI in assay [14] of 65.2 µM.
Turning to `O=C1NC(=S)NC(=O)C1=C/C=C/c1ccc([N+](=O)[O-])cc1`, the TGI in [2] is more than 100 µM; in [3], 29.1 µM; in assay [4] it was 34.7 µM; in [5] it was 19.6 µM; in assay [6], 10.4 µM; in assay [7], 29.6 µM. The TGI was 29.5 µM in assay [15]; 46.8 µM in assay [8]; 34.5 µM in assay [9]; 42.5 µM in assay [10]; 44.3 µM in assay [11]; 25 µM in [12]. The TGI was found to be 22.5 µM in [13] and 30.8 µM in assay [14].
As to `CCCCOC(=O)c1cc(C(=CCC[C@H]2CC[C@@]3(C)[C@@H](CC[C@@H]4[C@@H]3CC[C@]3(C)[C@@H](C(C)CCCC(C)C)CC[C@@H]43)C2)c2cc(Cl)c(O)c(C(=O)OCCCC)c2)cc(Cl)c1O` (stereo partly specified), the TGI in assay [1] is more than 50 µM; in assay [2], more than 5 µM; in assay [3], more than 50 µM; in assay [4], more than 50 µM; in [5], more than 50 µM; in assay [7], more than 50 µM. The TGI in assay [15], in assay [8], in assay [9], in [10], in assay [11] and in assay [12] was more than 50 µM each time. The compound also gave a TGI in assay [14] of more than 50 µM.
For `CC1(C)OC(=O)C(Cc2ccccc2)(Cc2ccccc2)C(=O)O1`, the TGI in assay [2], in [4], in assay [5], in assay [6], in assay [7] and in assay [8] was more than 100 µM throughout. The TGI in assay [9], in [10], in assay [11], in [12], in [13] and in assay [14] was more than 100 µM in each case.
